Reference: patent US20250122455A1, “INTEGRATED SYSTEM FOR MULTIPLE CULTIVATIONS OF A BIOLOGICAL AGENT AND METHODS OF USE THEREOF” (The Hong Kong Polytechnic University, priority 2023, published 2025)

Experiments:
[1] = tested on: PAO1 static biofilms; assay: Alamar blue viability of static biofilms in the BDR device after antibiotic treatment; type: cell-based, Pseudomonas aeruginosa
Experimental: The PAO1 culture was diluted 100-fold in ABTGC media and inoculated at 100 μl into each channel of the microfluidic model using a syringe and needle. Then the model was placed in a 37° C. incubator for 20 mins to allow bacteria to colonize the bottom of the microwells. ABTGC media containing tobramycin (Sigma) with concentrations of 0, 0.625, 1.25, 2.5, 5 ug/ml were injected into each chamber for 12 hrs treatment. Alamar blue cell viability reagent (Thermo Fisher) was diluted with culture media to 10% and injected into chambers, then incubated at 37° C. until the color changed from blue to pink. The colored liquid was collected from the chamber for direct measurement of OD600 nm and fluorescence (Ex: 560 nm, Em: 590 nm) using a microplate reader (Thermo Scientific Varioskan LUX Multimode Microplate Reader).

[2] = tested on: P. aeruginosa biofilms; type: cell-based, Pseudomonas aeruginosa

Row | Molecule | Fluorescence level of Alamar blue ([1]; increasing tobramycin 0-5 ug/ml, 12 hrs treatment, without continuous flow, FIG. 22A) | Bacterial numbers (viable cell populations) ([1]; increasing tobramycin, static biofilms, FIG. 22B) | Biofilm biomass change during EDA [2]
1 | NC[C@H]1O[C@H](O[C@H]2[C@H](O)[C@@H](O[C@H]3O[C@H](CO)[C@@H](O)[C@H](N)[C@H]3O)[C@H](N)C[C@@H]2N)[C@H](N)C[C@@H]1O [tobramycin] | decreased | reducing bacterial numbers | –
2 | cellulase | – | – | continuous reduction of biofilm from top to bottom of the microwells
